Assay results as given in patent US7723070B2, “Overexpression of aminoacyl-tRNA synthetases for efficient production of engineered proteins containing amino acid analogues” (California Institute of Technology, priority 2000, dated 2010).
“Also recorded” adds a separate entry of the source.

Columns and labels:
[1] = system: E. coli strain CAG18491/pQE15/pREP4; assay: Translational activity: mDHFR synthesis in methionine-depleted cultures of conventional host; type: cell-based; details: for Protein Yield: mDHFR from 1-liter cultures supplemented with the analogue; for translational activity: capacity to support mDHFR synthesis in absence of methionine (SDS-PAGE): methionine-depleted minimal medium, IPTG induction; for mDHFR produced relative to cultures supplemented with methionine: control yield = methionine
Description: Buffers and media were prepared according to standard protocols (Sambrook, J.; Fritsch, E. F.; Maniatis, T. Molecular Cloning: A Laboratory Manual, 2nd Ed. Cold Spring Harbor Laboratory Press, Cold Spring Harbor, N.Y. 1989; Ausubel, F. M.; Brent, K.; Kingston, K. E.; Moore, D. D.; Scidman, J. G.; Smith, J. A.; Struhl, K. Current Protocols in Molecular Biology, John Wiley & Sons, NY 1995). The E. coli methionine auxotroph CAG18491 (λ^−, rph-1, metE3079.:Tn10) (obtained from the Yale E. coli Genetic Stock Center), was transformed with plasmids pREP4 and pQE15 (Qiagen, Valencia, Calif.), to obtain the expression host CAG18491/pQE15/pREP4.
M9AA medium (50 mL) supplemented with 1 mM MgSO4, 0.2 wt % glucose, 1 mg/L thiamine chloride and the antibiotics ampicillin (200 mg/L) and kanamycin (25 mg/L) was inoculated with 2 mL of an overnight culture of CAG18491/pQE15/pREP4. When the turbidity of the culture reached an optical density at 600 nm (OD600) of 0.8, a medium shift was performed. The cells were sedimented for 10 min at 3030 g at 4° C., the supernatant was removed, and the cell pellet was washed twice with 20 mL of M9 medium. Cells were resuspended in 50 mL of the M9AA medium described above, without methionine. […] (0.31 mM), respectively. A culture lacking methionine (or any analogue) served as the negative control. Protein expression was induced by addition of isopropyl-β-D-thiogalactopyranoside (IPTG) to a final concentration of 0.4 mM. Samples were taken every hour for 4 h, the OD600 was measured, and the samples were sedimented. After the supernatant was decanted, the cell pellets were resuspended, in 20 μL distilled H2O.
Protein expression was monitored by SDS polyacrylamide gel electrophoresis (12% acrylamide running gel, 12 mA, 14 h), using a normalized OD600 of 0.2 per sample.
The example presented is for medium supplemented with 3. M9AA medium (100 mL) supplemented with 1 mM MgSO4 0.2 wt % glucose, 1 mg/L thiamine chloride and the antibiotics ampicillin (200 mg/L) and kanamycin (25 mg/L) was inoculated with E. coli strain CAG18491/pQE15/pREP4 and grown overnight at 37° C. This culture was used to inoculate 900 mL M9AA medium supplemented as described. The cells were grown to an OD600 of 0.94 and the medium shift was performed as described for the small scale experiments, followed by addition of 40 mL of 1 mg/mL DL-homopropargylglycine (3). IPTG (0.4 mM) was added, and samples were taken at 1 hour intervals. OD600 was measured, the samples were sedimented and decanted, and the cell pellets were resuspended in 20 μL distilled H2O. Protein expression was monitored by SDS polyacrylamide gel electrophoresis (12% acrylamide running gel, 12 mA, 15 h).
Approximately 4.5 h after induction, cells were sedimented (9,800 g, 10 min, 4° C.) and the supernatant was removed. The pellet was placed in the freezer overnight. The cells were thawed for 30 min at 37° C., 30 mL of buffer (6 M guanidine-HCl, 0.1 M NaH2PO4, 0.01 M Tris, pH 8) was added and the mixture was shaken at room temperature for 1 h. […] The supernatant was loaded on 10 mL of resin which was then washed with 50 mL of guanidine buffer followed by 25 mL of urea buffer (8 M urea, 0.1 M NaH2PO4 and 0.01 M Tris, pH 8). Similar urea buffers were used for three successive 25 mL washes at pH values of 6.3, 5.9 and 4.5, respectively. […] These washes were combined and dialyzed (Spectra/Por membrane 1, MWCO=6-8 kDa) against running distilled water for 4 days, followed by batchwise dialysis against doubly distilled water for one day. […] Amino acid analyses, electrospray mass spectrometry and N-terminal protein sequencing was performed on the mDHFR isolated.

[2] = system: E. coli strain CAG18491/pQE15/pREP4; assay: as above; type: cell-based; details: analogue in place of methionine at the time of inoculation
[3] = system: B834(DE3)/pQE15-MRS/pREP4; type: cell-based, E. coli
Source text: A gene encoding a mutant MetRS was removed from plasmid pBSM547W305F (D. Fourmy, Y. Mechulam, S. Brunie, S. Blanquet, G. Fayat, FEBS Lett. 1991, 292, 259-263) by treatment with restriction enzymes Sac I and Kpn I. The Sac I/Kpn I fragment (2450 bp) was ligated into the cloning vector pUC19-Nhelink, which was constructed to permit the cohesive ends of the mutant MetRS gene to be changed to Nhe I. The MetRS gene with Nhe I cohesive ends was then ligated into the unique Nhe I site of the plasmid pQE15 (Qiagen, Inc., Santa Clarita, Calif., USA) to yield plasmid pQE15-W305F (FIG. 20) (SEQ ID NO.: 2).
Plasmid DNA from all B834(DE3)/pQE15-MRS/pREP4 cultures used for protein expression experiments was sequenced to confirm that it encoded wild-type MetRS. […] The expression plasmid also encodes an N-terminal hexahistidine sequence for mDHFR which permits purification of the target protein by immobilized metal chelate affinity chromatography (The Qiagen Expressionist, 1992, p. 45). Furthermore, mDHFR contains 8 methionine residues which can be replaced by methionine analogues. A control bacterial host, which produces only mDHFR and normal cellular levels of MetRS, was prepared by transforming B834(DE3) with pREP4 and pQE15.
Methionine analogues were synthesized via alkylation of diethylacetamidomalonate, as previously described (As described in Example I, infra; J. C. M. van Hest, D. A. Tirrell, FEBS Lett. 1998, 428, 68-70). Cultures of B834(DE3)/pQE15-MRS/pREP4 or B834(DE3)/pQE15/pREP4 or CAG18491/pQE15-MRS/pREP4 or CAG18491/pQE15/pREP4 in M9AA media were grown to an optical density of 0.90, and the cells were sedimented by centrifugation. The M9AA medium was prepared by supplementing sterile M9 medium with […] of each of the amino acids, 1 mM MgSO4, 0.2 wt % glucose, 1 mg/ml thiamine chloride, and […] calcium chloride. The antibiotics ampicillin and kanamycin were added at concentrations of 200 mg/l and 35 mg/l, respectively.
Cells were washed three times with M9 salts and resuspended to an optical density of 0.90 in M9 test media containing 19 amino acids plus 1) neither methionine nor analogue (negative control); 2) methionine (60 mg/liter, positive control); or 3) an analogue of interest (60 mg/liter). To test the effect of increasing the level of supplementation of the analogues, a set of experiments was also conducted in which the medium was supplemented with 500 mg/liter of methionine or the amino acid analogue. Expression of mDHFR was induced by addition of 0.4 mM isopropyl β-D-thiogalactopyranoside (IPTG), and protein synthesis was monitored after 4.5 hours.

Row | Compound | Protein Yield [1] | translational activity: capacity to support mDHFR synthesis in absence of methionine (SDS-PAGE) [1] | mDHFR produced relative to cultures supplemented with methionine [1] | other results
1 | 2-butynylglycine [Analogue 11] | 0 mg/L | neither 5 or 11 support measurable protein synthesis; also recorded: not detected; also recorded: did not support measurable levels of protein synthesis | – | –
2 | C=CCCC(N)C(=O)O (racemic) [Analogue 2, DL-2-amino-5-hexenoic acid] | 10 mg/L | exhibit translational activity sufficient to allow protein synthesis; also recorded: serve effectively as methionine surrogates; also recorded: can be detected | 28% | growth of cultures in minimal media with methionine replaced by analogue at inoculation [2]: did not grow
3 | C#CCCC(N)C(=O)O (racemic) [Analogue 3, DL-homopropargylglycine] | 35 mg/L | exhibit translational activity sufficient to allow protein synthesis; also recorded: serve effectively as methionine surrogates; also recorded: can be detected | equivalent | substitution/replacement of methionine by analogue (1H NMR, amino acid analysis, N-terminal sequencing together) ([1]; mDHFR): near-quantitative replacement of methionine; growth of cultures in minimal media with methionine replaced by analogue at inoculation [2]: did not grow
4 | C/C=C\CC(N)C(=O)O (racemic) [Analogue 4, cis-2-amino-4-hexenoic acid] | – | prevented incorporation; also recorded: neither 4 nor 5 were indicated to be translationally active | – | –
5 | C/C=C/CC(N)C(=O)O (racemic) [Analogue 5, trans-2-amino-4-hexenoic acid] | 0 mg/L | neither 5 or 11 support measurable protein synthesis; also recorded: prevented incorporation; also recorded: neither 4 nor 5 were indicated to be translationally active; also recorded: did not support measurable levels of protein synthesis | – | incorporation of the analogue at the initiator position (N-terminal sequencing) [3]: 96±2%; mDHFR produced relative to cultures supplemented with methionine [3]: 23%; overall extent of incorporation of the analogue (amino acid analysis) [3]: 91±2%; replacement of methionine (integration of NMR spectrum) [3]: 90±6%; mDHFR expression (SDS-PAGE) ([3]; 60 mg/L): strong induction of mDHFR; methionine content by amino acid analysis ([3]; expected value 3.8 mol %): 0.3 mol %
6 | CCCCCC(N)C(=O)O (racemic) [Analogue 7, DL-2-aminoheptanoic acid] | – | neither norvaline (8) nor 7 showed translational activity | – | –
7 | CSCC[C@H](N)C(=O)O [Analogue 1, L-methionine, reference compound] | 35 mg/L | can be detected | – | Protein yields ([3]; supplemented cultures): approximately 35 mg/liter
8 | CCC[C@H](N)C(=O)O [Analogue 8, L-norvaline] | – | neither norvaline (8) nor 7 showed translational activity | – | –
9 | CCCC[C@H](N)C(=O)O [Analogue 9, L-norleucine] | 20 mg/L | confirmed; also recorded: does support protein synthesis; also recorded: can be detected | 57% | –
